Experimental data taken from US10875837B2, “Inhibitors of the fibroblast growth factor receptor” (BLUEPRINT MEDICINES CORPORATION, priority 2013, dated 2020).

These compounds were tested against T1, wild type FGFR-4 (Homo sapiens, UniProt P22455) (assay: FGFR-4 wild type assay at Km (Caliper electrophoretic mobility shift)). Settings: wild type FGFR-4, 400 uM ATP, 25 C, 90 minutes; read-out: INH-FGFR4.
T1 construct: purchased Carna Biosciences, Inc
Type: biochemical
Protocol: Biochemical Activity Assessment In order to assess the activity of chemical compounds against the relevant kinase of interest, the Caliper LifeSciences electrophoretic mobility shift technology platform is utilized. Fluorescently labeled substrate peptide is incubated in the presence dosed levels of compounds, a set concentration of kinase and of ATP, so that a reflective proportion of the peptide is phosphorylated. At the end of the reaction, the mix of phosphorylated (product) and non-phosphorylated (substrate) peptides are passed through the microfluidic system of the Caliper LabChip® EZ Reader II, under an applied potential difference. The presence of the phosphate group on the product peptide provides a difference in mass and charge between the product peptide and the substrate peptide, resulting in a separation of the substrate and product pools in the sample. As the pools pass the LEDS within the instrument, these pools are detected and resolved as separate peaks. The ratio between these peaks therefore reflects the activity of the chemical matter at that concentration in that well, under those conditions.
FGFR-4 wild type assay at Km: In each well of a 384-well plate, 0.5 ng/ul of wild type FGFR-4 (Carna Biosciences, Inc.) was incubated in a total of 12.5 ul of buffer (100 mM HEPES pH 7.5, 0.015% Brij 35, 10 mM MgCl2, 1 mM DTT) with 1 uM CSKtide (5-FAM-KKKKEEIYFFFG-NH2) and 400 uM ATP at 25 C for 90 minutes in the presence or absence of a dosed concentration series of compound (1% DMSO final concentration). The reaction was stopped by the addition of 70 ul of Stop buffer (100 mM HEPES pH 7.5, 0.015% Brij 35, 35 mM EDTA and 0.2% of Coating Reagent 3 (Caliper Lifesciences)). The plate was then read on a Caliper LabChip® EZ Reader II (protocol settings: −1.9 psi, upstream voltage −700, downstream voltage −3000, post sample sip 35 s).

T1 sequence (P22455 22-802): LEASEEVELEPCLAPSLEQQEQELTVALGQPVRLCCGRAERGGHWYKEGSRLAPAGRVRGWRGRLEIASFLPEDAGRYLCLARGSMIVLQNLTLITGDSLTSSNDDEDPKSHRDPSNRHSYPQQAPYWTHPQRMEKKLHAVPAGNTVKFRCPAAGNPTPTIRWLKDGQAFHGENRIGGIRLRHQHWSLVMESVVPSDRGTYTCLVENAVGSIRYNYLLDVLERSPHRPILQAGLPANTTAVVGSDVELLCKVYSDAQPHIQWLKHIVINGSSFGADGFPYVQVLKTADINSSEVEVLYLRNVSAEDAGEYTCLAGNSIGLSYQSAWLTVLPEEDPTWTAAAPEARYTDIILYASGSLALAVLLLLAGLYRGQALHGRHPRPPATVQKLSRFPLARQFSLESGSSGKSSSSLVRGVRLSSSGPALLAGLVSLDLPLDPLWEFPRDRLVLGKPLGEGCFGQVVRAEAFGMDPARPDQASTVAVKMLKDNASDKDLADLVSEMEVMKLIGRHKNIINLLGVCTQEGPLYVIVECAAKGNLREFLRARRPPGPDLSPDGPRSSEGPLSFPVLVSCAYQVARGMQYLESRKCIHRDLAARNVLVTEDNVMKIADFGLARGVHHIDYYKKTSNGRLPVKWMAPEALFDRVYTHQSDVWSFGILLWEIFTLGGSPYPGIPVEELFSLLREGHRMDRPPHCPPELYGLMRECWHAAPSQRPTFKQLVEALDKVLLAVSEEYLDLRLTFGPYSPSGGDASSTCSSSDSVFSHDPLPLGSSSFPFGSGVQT

SMILES	IC50 [nM]
CCC(=O)N[C@H]1CCC[C@H]1Nc1ncc2cc(-c3cc(C(=O)NC4CC4)ccc3Cl)ccc2n1 [Compound 17]	> 1000
C=CC(=O)N[C@H]1CCC[C@H]1Nc1ncc2cc(-c3c(Cl)c(OC)cc(OC)c3Cl)cc(Cl)c2n1 [Compound 53]	10 to 100
C=CC(=O)N[C@H]1CCN(C(=O)OC(C)(C)C)C[C@H]1Nc1ncc2cc(-c3c(Cl)c(OC)cc(OC)c3Cl)ccc2n1 [Compound 92]	> 1000
C=CC(=O)N[C@H]1CCCC[C@H]1Nc1ncc2nc(-c3c(Cl)c(OC)cc(OC)c3Cl)c(=O)n(CC)c2n1 [Compound 78]	100 to 1000
C#CC(=O)N[C@H]1CCC[C@H]1Nc1ncc2cc(-c3cc(C(N)=O)ccc3Cl)ccc2n1 [Compound 3]	100 to 1000
C=CC(=O)N[C@H]1CCC[C@H]1Nc1ncc2cc(-c3cc(C(=O)NC4CC4)ccc3C)ccc2n1 [Compound 9]	100 to 1000
C#CC(=O)N[C@H]1CCC[C@H]1Nc1ncc2cc(-c3c(F)ccc(OC)c3F)ccc2n1 [Compound 2, N-((1S,2R)-2-((6-(2,6-difluoro-3-methoxyphenyl)quinazolin-2-yl)amino)cyclopentyl)propiolamide]	10 to 100
C=CC(=O)N[C@@H]1CCN(C(C)=O)C[C@@H]1Nc1ncc2cc(-c3c(Cl)c(OC)cc(OC)c3Cl)ccc2n1 [Compound 69]	100 to 1000
C=CC(=O)N[C@H]1COCC1Nc1ncc2cc(-c3cc(OC)cc(OC)c3Cl)ccc2n1 (stereo partly shown) [Compound 8]	10 to 100
C=CC(=O)N[C@H]1CCN(C(C)=O)C[C@H]1Nc1ncc2cc(-c3c(Cl)c(OC)cc(OC)c3Cl)ccc2n1 [Compound 70]	100 to 1000
C=CC(=O)N[C@H]1C[C@H](C(=O)N(C)C)C[C@H]1Nc1ncc2cc(-c3c(Cl)c(OC)cc(OC)c3Cl)ccc2n1 [Compound 82, (1R,3S,4R)-3-acrylamido-4-((6-(2,6-dichloro-3,5-dimethoxyphenyl)quinazolin-2-yl)amino)-N,N-dimethylcyclopentane-1-carboxamide]	> 1000
C=CC(=O)N[C@H]1CC(=O)C[C@H]1Nc1ncc2cc(-c3c(Cl)c(OC)cc(OC)c3Cl)ccc2n1 [Compound 33]	10 to 100
C=CC(=O)N[C@H]1CCOC[C@H]1Nc1ncc2cc(-c3c(Cl)c(OC)cc(OC)c3Cl)cc(Cl)c2n1 [Compound 67]	< 10
C#CC(=O)N[C@H]1CCC[C@H]1Nc1ncc2cc(-c3cc(S(=O)(=O)N(C)C)ccc3C)ccc2n1 [Compound 18]	> 1000
C#CC(=O)N[C@H]1CCC[C@H]1Nc1ncc2cc(-c3cc(C(=O)NOC)ccc3Cl)ccc2n1 [Compound 12]	< 10
C#CC(=O)N[C@H]1CCC[C@H]1Nc1ncc2cc(-c3cc(OC)cc(C(=O)NCC)c3)ccc2n1 [Compound 10]	> 1000
C#CC(=O)N[C@H]1CCC[C@H]1Nc1ncc2cc(-c3cc(C(=O)NC4CC4)ccc3Cl)ccc2n1 [Compound 16]	10 to 100
C#CC(=O)N[C@H]1CCC[C@H]1Nc1ncc2cc(-c3cccnc3)ccc2n1 [Compound 1]	> 1000

SMILES	IC50 [nM]
C=CC(=O)N[C@H]1C[C@@H](C(=O)OC)C[C@H]1Nc1ncc2cc(-c3c(Cl)c(OC)cc(OC)c3Cl)ccc2n1 [Compound 73]	10 to 100
C=CC(=O)N[C@H]1CC(C)(C)OC[C@H]1Nc1ncc2cc(-c3c(Cl)c(OC)cc(OC)c3Cl)ccc2n1 [Compound 60]	> 1000
C=CC(=O)N[C@@H]1CN(C(C)=O)C[C@@H]1Nc1ncc2cc(-c3c(Cl)c(OC)cc(OC)c3Cl)ccc2n1 [Compound 57]	100 to 1000
C#CC(=O)N[C@H]1CCC[C@H]1Nc1ncc2cc(-c3cc(C(=O)NCC)ccc3Cl)ccc2n1 [Compound 11]	10 to 100
C#CC(=O)N[C@H]1CCC[C@H]1Nc1ncc2cc(-c3cc(C(=O)NOC)c(F)cc3Cl)ccc2n1 [Compound 19]	10 to 100
C=CC(=O)N[C@@H]1CC(C)(C)OC[C@@H]1Nc1ncc2cc(-c3c(Cl)c(OC)cc(OC)c3Cl)ccc2n1 [Compound 59]	100 to 1000
C=CC(=O)NC1CNCC1Nc1ncc2cc(-c3c(Cl)c(OC)cc(OC)c3Cl)ccc2n1 (stereo not shown) [Compound 25]	10 to 100
C#CC(=O)N[C@H]1CCC[C@H]1Nc1ncc2cc(-c3cc(C(=O)NC4CC4)ccc3C)ccc2n1 [Compound 7]	10 to 100
C=CC(=O)N[C@H]1C[C@H](C(=O)N(C)C)CC[C@H]1Nc1ncc2cc(-c3c(Cl)c(OC)cc(OC)c3Cl)ccc2n1 (racemic) [Compound 87]	100 to 1000
C=CC(=O)NC1CN(C(C)=O)CCC1Nc1ncc2cc(-c3c(Cl)c(OC)cc(OC)c3Cl)ccc2n1 (stereo not shown) [Compound 71]	10 to 100
C#CC(=O)N[C@H]1CCC[C@H]1Nc1ncc2cc(-c3c(F)ccc(OCC)c3Cl)ccc2n1 [Compound 6, N-((1S,2R)-2-((6-(2-chloro-3-ethoxy-6-fluorophenyl)quinazolin-2-yl)amino)cyclopentyl)propiolamide]	100 to 1000
C=CC(=O)N[C@H]1C[C@@H](C(=O)N(C)C)C[C@H]1Nc1ncc2cc(-c3c(Cl)c(OC)cc(OC)c3Cl)ccc2n1 [Compound 81, (1 S,3S,4R)-3-acrylamido-4-((6-(2,6-dichloro-3,5-dimethoxyphenyl)quinazolin-2-yl)amino)-N,N-dimethylcyclopentanecarboxamide]	10 to 100
C#CC(=O)N[C@H]1CCC[C@H]1Nc1cc2c(cn1)cc(-c1c(Cl)c(OC)cc(OC)c1Cl)c(=O)n2C [Compound 49]	< 10
C#CC(=O)N[C@H]1CCC[C@H]1Nc1ncc2cc(-c3c(Cl)ccc(OC)c3F)ccc2n1 [Compound 4]	10 to 100
C#CC(=O)N[C@H]1CCCC[C@H]1Nc1cc2c(cn1)cc(-c1c(Cl)c(OC)cc(OC)c1Cl)c(=O)n2CC [Compound 68]	< 10
C=CC(=O)N[C@H]1CCOC[C@H]1Nc1ncc2c(F)c(-c3c(Cl)c(OC)cc(OC)c3Cl)ccc2n1 [Compound 50]	10 to 100
C#CC(=O)N[C@H]1CCC[C@H]1Nc1ncc2cc(-c3cc(C(=O)NC4CC4)c(F)cc3Cl)ccc2n1 [Compound 30]	10 to 100

Second part, the compound after the results:

IC50 [nM]	SMILES
10 to 100	C=CC(=O)N[C@H]1C[C@@H](O)C[C@H]1Nc1ncc2cc(-c3c(Cl)c(OC)cc(OC)c3Cl)ccc2n1 [Compound 42]
< 10	C#CC(=O)N[C@H]1CCCC[C@H]1Nc1ncc2cc(-c3c(Cl)c(OC)cc(OC)c3Cl)ccc2n1 [Compound 31]
10 to 100	C=CC(=O)NC1CCS(=O)(=O)CC1Nc1ncc2cc(-c3c(Cl)c(OC)cc(OC)c3Cl)ccc2n1 (stereo not shown) [Compound 79]
> 1000	C=CC(=O)N[C@@H]1CCC[C@H]1Nc1ncc2cc(-c3c(Cl)c(OC)cc(OC)c3Cl)ccc2n1 [Compound 21]
100 to 1000	C=CC(=O)N[C@H]1CCC[C@@H]1Nc1ncc2cc(-c3c(Cl)c(OC)cc(OC)c3Cl)ccc2n1 [Compound 22]
100 to 1000	C#CC(=O)N[C@H]1Cc2ccccc2[C@H]1Nc1ncc2cc(-c3c(Cl)c(OC)cc(OC)c3Cl)ccc2n1 [Compound 65]
100 to 1000	C=CC(=O)N[C@H]1CC[C@H](C(N)=O)C[C@H]1Nc1ncc2cc(-c3c(Cl)c(OC)cc(OC)c3Cl)ccc2n1 (racemic) [Compound 72]
10 to 100	C#CC(=O)NC1CCC1Nc1ncc2cc(-c3c(Cl)c(OC)cc(OC)c3Cl)ccc2n1 (stereo not shown) [Compound 14]
> 1000	C=CC(=O)N[C@@H]1CCCC[C@@H]1Nc1ncc2cc(-c3c(Cl)c(OC)cc(OC)c3Cl)ccc2n1 [Compound 35]
10 to 100	C=CS(=O)(=O)N[C@H]1CCCC[C@H]1Nc1ncc2cc(-c3c(Cl)c(OC)cc(OC)c3Cl)ccc2n1 [Compound 66]
100 to 1000	C=CC(=O)N[C@H]1CCNC[C@H]1Nc1ncc2cc(-c3c(Cl)c(OC)cc(OC)c3Cl)ccc2n1 [Compound 38]
< 10	C#CC(=O)N[C@H]1CCC[C@H]1Nc1ncc2cc(-c3c(Cl)c(OC)cc(OC)c3Cl)ccc2n1 [Compound 20]
< 10	C#CC(=O)N[C@H]1CCC[C@H]1Nc1ncc2cc(-c3c(Cl)c(OC)cc(OC)c3Cl)cc(OC)c2n1 [Compound 48]
100 to 1000	C=CC(=O)NC1CCC1Nc1ncc2cc(-c3c(Cl)c(OC)cc(OC)c3Cl)ccc2n1 (stereo not shown) [Compound 15]
100 to 1000	C=CC(=O)N[C@@H]1CCOC[C@@H]1Nc1ncc2cc(-c3c(Cl)c(OC)cc(OC)c3Cl)ccc2n1 [Compound 43]
> 1000	C=CC(=O)N[C@H]1CCCC[C@@H]1Nc1ncc2cc(-c3c(Cl)c(OC)cc(OC)c3Cl)ccc2n1 [Compound 36, N-((1S,2S)-2-((6-(2,6-dichloro-3,5-dimethoxyphenyl)quinazolin-2-yl)amino)cyclohexyl)acrylamide]
10 to 100	C#CC(=O)N[C@H]1CCC[C@H]1Nc1ncc2cc(-c3c(Cl)ccc(OC)c3Cl)ccc2n1 [Compound 5]
100 to 1000	C=CC(=O)N[C@@H]1CCC[C@@H]1Nc1ncc2cc(-c3c(Cl)c(OC)cc(OC)c3Cl)ccc2n1 [Compound 23]
> 1000	CC#CC(=O)N[C@H]1CCCC[C@H]1Nc1ncc2cc(-c3c(Cl)c(OC)cc(OC)c3Cl)ccc2n1 [Compound 47]
> 1000	C=CC(=O)N[C@@H]1CCCC[C@H]1Nc1ncc2cc(-c3c(Cl)c(OC)cc(OC)c3Cl)ccc2n1 [Compound 37]
